Assay results reported in patent publication US7713994B2 (Wyeth LLC, priority 2005, dated 2010).
pIC50: −log10 of the molar value.

Legend:
cyclin D1/cdk 4 enzyme = target: T1, cyclin D1/cdk 4 enzyme (Homo sapiens, UniProt P11802); assay: CDK4 ELISA kinase assay (phospho-Rb ser 795 detection); format: biochemical; conditions: In Vitro Enzyme Assay, cyclin D1/cdk 4, read-out: CDK4 IC50
T1 construct: made in house; host or cells: Sf9 insect cells, recombinant baculovirus
Procedure, shortened: (§1)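 Inhibition was derived from A450 relative to control wells lacking compound, following an anti-phospho-Rb Ser795 sandwich of HRP detection. The reactions combined coated GST-Rb fragment, 200 μM ATP and baculovirus-expressed cyclin/CDK enzymes, incubated for 1 h at 30° C.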

LoVo = assay: Cytotoxicity assay (SRB), LoVo; format: cell-based; conditions: Homo sapiens, LoVo, 72 h, LoVo cells, 3 days, SRB; read-out: In Vitro Cellular Activity IC50 LOVO
Procedure, shortened: (§2)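 Plate cells, let them attach overnight, add compound dilutions in RPMI 1640/5% FBS, and incubate 3 days (BT474 6 days). Then fix with TCA, stain with SRB, dissolve the dye in Tris and read at 540 nm.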

cyclin E/CDK2 enzyme = target: T2, cyclin E/CDK2 enzyme (Homo sapiens, UniProt P24941); assay: CDK2 ELISA kinase assay (phospho-Rb ser 795 detection); format: biochemical; conditions: In Vitro Enzyme Assay, cyclin E/CDK2, read-out: CDK2 IC50
T2 construct: made in house; host or cells: Sf9 insect cells, recombinant baculovirus
Procedure, shortened: as §1

SK-UT-1B = assay: Cytotoxicity assay (SRB), SK-UT-1B; format: cell-based; conditions: Homo sapiens, Skut1B; SK-UT-1B cells; read-out: In Vitro Cellular Activity IC50 SK-UT-1B
cyclin B/CDK1 enzyme = target: T3, cyclin B/CDK1 enzyme (Homo sapiens, UniProt P06493); assay: CDK1 ELISA kinase assay (phospho-Rb ser 795 detection); format: biochemical; conditions: In Vitro Enzyme Assay, cyclin B/CDK1, read-out: CDK1 IC50
T3 construct: purchased New England BioLabs; host or cells: Sf9 insect cells, recombinant baculovirus
Procedure, shortened: as §1

SK-Br-3 = assay: Cytotoxicity assay (SRB), SK-Br-3; format: cell-based; conditions: Homo sapiens; SK-Br-3 cells; read-out: In Vitro Cellular Activity IC50 SK-Br-3
HCT-116 = assay: Cytotoxicity assay (SRB), HCT-116; format: cell-based; conditions: Homo sapiens, HCT-116, 72 h, HCT116 cells, 3 days, SRB; read-out: In Vitro Cellular Activity IC50 HCT116
Procedure, shortened: as §2

MCF-7 = assay: Cytotoxicity assay (SRB), MCF-7; format: cell-based; conditions: Homo sapiens, MCF7, 72 h, MCF-7 cells, 3 days, SRB; read-out: In Vitro Cellular Activity IC50 MCF-7
Procedure, shortened: as §2

BT474 = assay: Cytotoxicity assay (SRB), BT474; format: cell-based; conditions: Homo sapiens, BT-474, 144 h, BT474 cells, 6 days, SRB; read-out: In Vitro Cellular Activity IC50 BT474
Procedure, shortened: as §2

T3 sequence (P06493 whole entry): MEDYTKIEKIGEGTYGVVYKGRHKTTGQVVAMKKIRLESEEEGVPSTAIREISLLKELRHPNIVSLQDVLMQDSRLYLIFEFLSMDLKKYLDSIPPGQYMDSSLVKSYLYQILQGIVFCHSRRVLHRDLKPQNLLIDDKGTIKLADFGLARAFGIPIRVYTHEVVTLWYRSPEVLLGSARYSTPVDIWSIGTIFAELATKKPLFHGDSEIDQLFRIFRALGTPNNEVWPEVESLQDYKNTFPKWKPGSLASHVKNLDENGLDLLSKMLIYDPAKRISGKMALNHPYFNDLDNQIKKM
T3 sequence (P14635 whole entry partner): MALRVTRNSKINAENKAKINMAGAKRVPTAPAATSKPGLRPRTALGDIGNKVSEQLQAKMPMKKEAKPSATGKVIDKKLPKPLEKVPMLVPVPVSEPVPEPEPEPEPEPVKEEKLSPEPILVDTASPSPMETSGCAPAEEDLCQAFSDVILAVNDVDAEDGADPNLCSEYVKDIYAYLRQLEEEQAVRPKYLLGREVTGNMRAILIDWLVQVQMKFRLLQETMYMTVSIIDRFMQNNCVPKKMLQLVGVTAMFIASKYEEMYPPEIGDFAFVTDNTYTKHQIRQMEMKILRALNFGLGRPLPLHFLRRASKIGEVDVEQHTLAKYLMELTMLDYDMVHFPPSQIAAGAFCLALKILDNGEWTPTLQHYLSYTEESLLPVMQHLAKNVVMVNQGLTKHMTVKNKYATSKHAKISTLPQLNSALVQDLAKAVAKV
T1 sequence (P11802 whole entry, species assumed): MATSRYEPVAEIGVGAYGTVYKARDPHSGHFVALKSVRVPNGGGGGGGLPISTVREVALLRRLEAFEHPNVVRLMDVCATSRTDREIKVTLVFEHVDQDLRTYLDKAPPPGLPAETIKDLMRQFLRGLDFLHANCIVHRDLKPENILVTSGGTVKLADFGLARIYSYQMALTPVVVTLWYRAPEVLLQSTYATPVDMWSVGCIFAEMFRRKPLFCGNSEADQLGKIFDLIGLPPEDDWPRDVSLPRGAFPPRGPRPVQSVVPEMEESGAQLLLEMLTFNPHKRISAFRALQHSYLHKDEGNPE
T1 sequence (P24385 whole entry partner, species assumed): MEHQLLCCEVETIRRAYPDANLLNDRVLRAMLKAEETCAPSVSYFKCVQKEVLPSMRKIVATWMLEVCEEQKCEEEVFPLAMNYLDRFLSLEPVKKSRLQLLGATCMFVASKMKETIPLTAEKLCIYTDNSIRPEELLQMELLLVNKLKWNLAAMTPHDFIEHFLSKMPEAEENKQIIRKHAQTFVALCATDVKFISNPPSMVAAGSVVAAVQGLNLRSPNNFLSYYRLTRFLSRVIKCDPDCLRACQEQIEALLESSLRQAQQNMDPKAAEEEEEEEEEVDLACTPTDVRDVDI

| Compound | pIC50 (cyclin D1/cdk 4 enzyme) | pIC50 (LoVo) | pIC50 (cyclin E/CDK2 enzyme) | pIC50 (SK-UT-1B) | pIC50 (cyclin B/CDK1 enzyme) | pIC50 (SK-Br-3) | pIC50 (HCT-116) | pIC50 (MCF-7) | pIC50 (BT474) |
| --- | --- | --- | --- | --- | --- | --- | --- | --- | --- |
| Nc1ccc(NC=C2C(=O)NC(=O)c3ccccc32)cc1 [Example 545, 4-[(4-Amino-phenylamino)-methylene]-4H-isoquinoline-1,3-dione] | 4.75 | < 4.30 | 5.60 | 4.41 | < 4.30 | < 4.30 | 4.40 | < 4.30 | < 4.30 |
| O=C1NC(=O)c2ccccc2/C1=C/NCc1ccc(O)c(O)c1 [Example 550, 4-[(3,4-Dihydroxy-benzylamino)-methylene]-4H-isoquinoline-1,3-dione] | – | 4.33 | 4.90 | 4.76 | – | 4.49 | 4.58 | 4.41 | 4.44 |
| O=C1NC(=O)c2ccccc2C1=CNc1ccc(O)c2ncccc12 [Example 569, 4-[(8-Hydroxy-quinolin-5-ylamino)-methylene]-4H-isoquinoline-1,3-dione] | 4.95 | < 4.30 | 5.21 | 5.66 | 4.46 | 5.05 | 5.15 | 5.14 | 4.85 |
